The record followed here is paper PMC6792352, “Limited Chemical Structural Diversity Found to Modulate Thyroid Hormone Receptor in the Tox21 Chemical Library” (Environmental Health Perspectives, 2019).

Where a name gives a salt, the structure may show the parent alone. Read-outs that look alike come from different tables or passages of the source.

In the data set the test system is GH3-TRE-Luc cell line. To be noted: read-out: AC50 (uM) modified / 1000, viability, 1 nM T3 present, 24 h.

Consider `O=C1OC2(c3ccccc31)c1cc(Br)c(O)c(Br)c1Oc1c2cc(Br)c(O)c1Br` [Eosin], for which the CC50 (Tox21_110001=Tox21_112323) is 9.05 µM and the CC50 (Tox21_110001=Tox21_302152) came to 8.28 µM. Consider `COc1cc(/C=C/C(=O)CC(=O)/C=C/c2ccc(O)c(OC)c2)ccc1O` [Curcumin], for which the CC50 was 22.1 µM (Tox21_110001=Tox21_110803) and 26.5 µM (Tox21_110001=Tox21_201116).

Consider `CC(C)(C)c1cc(O)ccc1O` [tert-Butylhydroquinone], for which the CC50 reads like this: (Tox21_110001=Tox21_110007) 7.35 µM; (Tox21_110001=Tox21_202309) 64.9 µM; (Tox21_110001=Tox21_300081) 37.7 µM. In the case of `CCCCCCCCCCCCn1cc[n+](C)c1` [1-Dodecyl-3-methylimidazolium bromide], for the setting “Tox21_110001=Tox21_202628”, the CC50 was found to be 80.1 µM. As for `O=C(OC[C@H]1O[C@@H](OC(=O)c2cc(O)c(O)c(OC(=O)c3cc(O)c(O)c(O)c3)c2)[C@H](OC(=O)c2cc(O)c(O)c(OC(=O)c3cc(O)c(O)c(O)c3)c2)[C@@H](OC(=O)c2cc(O)c(O)c(OC(=O)c3cc(O)c(O)c(O)c3)c2)[C@@H]1OC(=O)c1cc(O)c(O)c(OC(=O)c2cc(O)c(O)c(O)c2)c1)c1cc(O)c(O)c(OC(=O)c2cc(O)c(O)c(O)c2)c1` [Tannic acid], the CC50 was 3.05 µM (Tox21_110001=Tox21_111422) and 15.7 µM (Tox21_110001=Tox21_300079). In the case of `COc1cc([C@@H]2c3cc4c(cc3[C@@H](O[C@@H]3O[C@@H]5CO[C@@H](C)O[C@H]5[C@H](O)[C@H]3O)[C@H]3COC(=O)[C@H]23)OCO4)cc(OC)c1O` [Etoposide], the CC50 by setting is: (Tox21_110001=Tox21_110630) 6.45 µM; (Tox21_110001=Tox21_302201) 2.85 µM.

On to `O=S(=O)(O)c1ccc2c(N=Nc3ccc(S(=O)(=O)O)c4ccccc34)c(O)c(S(=O)(=O)O)cc2c1` [Amaranth], for which the CC50 (Tox21_110001=Tox21_112280) worked out at 19.3 µM. Consider `CC(C)(C)NC(=O)[C@@H]1C[C@@H]2CCCC[C@@H]2CN1C[C@@H](O)[C@H](Cc1ccccc1)NC(=O)[C@H](CC(N)=O)NC(=O)c1ccc2ccccc2n1` [Saquinavir mesylate], for which the CC50 (Tox21_110001=Tox21_111137) amounted to 9.01 µM and the CC50 (Tox21_110001=Tox21_202533) is 27.8 µM. As for `COc1ccc(C(Cl)=C(c2ccc(OC)cc2)c2ccc(OC)cc2)cc1` [Chlorotrianisene], the CC50 (Tox21_110001=Tox21_202361) worked out at 13.6 µM. `CC[C@H]1OC(=O)[C@H](C)[C@@H](O[C@H]2C[C@@](C)(OC)[C@@H](O)[C@H](C)O2)[C@H](C)[C@@H](O[C@@H]2O[C@H](C)C[C@H](N(C)C)[C@H]2O)[C@](C)(O)C[C@@H](C)/C(=N\OCOCCOC)[C@H](C)[C@@H](O)[C@]1(C)O` [Roxithromycin]: the CC50 (Tox21_110001=Tox21_301835) turned out to be 31 µM. `COc1ccc(CCN(C)CCCC(C#N)(c2ccc(OC)c(OC)c2)C(C)C)cc1OC` (centres unmarked) [Verapamil]: the CC50 (Tox21_110001=Tox21_110300) is 23.2 µM. With `NC(N)=O` [Carbamide peroxide], where the note is “Tox21_110001=Tox21_302451”, the CC50 amounted to 69 µM. As to `Cc1cc(-c2ccc(/N=N/c3ccc4c(S(=O)(=O)O)cc(S(=O)(=O)O)c(N)c4c3O)c(C)c2)ccc1/N=N/c1ccc2c(S(=O)(=O)O)cc(S(=O)(=O)O)c(N)c2c1O` [C.I. Direct Blue 53], the CC50 (Tox21_110001=Tox21_113237) stood at 21.8 µM. As to `CC1=CC(=O)c2ccccc2C1=O` [Menadione], where the note is “Tox21_110001=Tox21_301367”, the CC50 came to 13 µM. `CN(C)c1ccc2nc3ccc(=[N+](C)C)cc-3sc2c1` [Methylene Blue trihydrate]: the CC50 (Tox21_110001=Tox21_202525) is 27.1 µM.

`c1cnc2c(c1)ccc1cccnc12` [1,10-Phenanthroline]: the CC50 is, setting by setting: (Tox21_110001=Tox21_201998) 46.4 µM; (Tox21_110001=Tox21_303111) 66.2 µM.

Take `CCCCCCCCCc1ccc(O)cc1` [4-Nonylphenol, branched]: the CC50 (Tox21_110001=Tox21_111040) was found to be 28.7 µM, the CC50 (Tox21_110001=Tox21_201528) amounted to 23.6 µM and the CC50 (Tox21_110001=Tox21_300576) is 22.3 µM.

Regarding `CCCCCCCCCCCCCCCC[N+](C)(C)C` [Hexadecyltrimethylammonium bromide], the CC50 reads like this: (Tox21_110001=Tox21_112096) 9.07 µM; (Tox21_110001=Tox21_300853) 11.7 µM. For the molecule `COC(=O)Nc1nc2ccc(Sc3ccccc3)cc2[nH]1` [Fenbendazole], the CC50 stood at 0.23 µM (Tox21_110001=Tox21_110649) and 1.53 µM (Tox21_110001=Tox21_301828). In the case of `O=C(O)CCCC(=O)O` [Glutaric acid], the CC50 (Tox21_110001=Tox21_302871) is 35.4 µM. As for `Clc1ccc(COC(Cn2ccnc2)c2ccc(Cl)cc2Cl)cc1` (centres unmarked) [Econazole nitrate], the CC50 reads like this: (Tox21_110001=Tox21_110852) 13.9 µM; (Tox21_110001=Tox21_200771) 23.8 µM; (Tox21_110001=Tox21_303391) 29.6 µM.

Take `CCCCCCCCCCCCN` [Dodecylamine hydrochloride]: the CC50 (Tox21_110001=Tox21_301702) was 19.6 µM. Regarding `CCCCC(CC)COC(=O)CC(C(=O)OCC(CC)CCCC)S(=O)(=O)O` (centres unmarked) [Docusate sodium], the CC50 amounted to 34.4 µM (Tox21_110001=Tox21_112087), 18.8 µM (Tox21_110001=Tox21_113469), 64.9 µM (Tox21_110001=Tox21_201342) and 57.2 µM (Tox21_110001=Tox21_300496).

Take `CN(C)c1ccc(C(=O)c2ccc(N(C)C)cc2)cc1` [Michler's ketone]: the CC50 (Tox21_110001=Tox21_202416) was 2.74 µM. Regarding `CC(=O)Nc1ccc(C(=O)CCl)cc1` [4'-(Chloroacetyl)acetanilide], under “Tox21_110001=Tox21_302954”, the CC50 worked out at 16.5 µM. With `CCCOC(=O)c1cc(O)c(O)c(O)c1` [Propyl gallate], the CC50 was 32.9 µM (Tox21_110001=Tox21_113531), 61.7 µM (Tox21_110001=Tox21_202286) and 72.8 µM (Tox21_110001=Tox21_300060).

With `Nc1nc(Cl)nc2c1ncn2[C@H]1C[C@H](O)[C@@H](CO)O1` [Cladribine], the CC50 by setting is: (Tox21_110001=Tox21_110834) 0.386 µM; (Tox21_110001=Tox21_300596) 0.166 µM.
